Measurements taken from US6300112A, “β-xylosidase, nucleotide sequence encoding it, and use thereof” (Danisco Ingredients A.S (Danisco A/S), priority 1995, dated 2001).

Columns and labels:
[1] = molecular target: Aspergillus niger β-xylosidase according to Rodionova et al. (1983); conditions: β-xyl (Rodionova), comparison enzyme; read-out: inhibition Ki (mM xylosc); cited from earlier work
[2] = molecular target: T1, Aspergillus niger β-xylosidase I (X-I, xylD), SEQ ID NO. 1 (Aspergillus niger, UniProt O00089); assay: Inhibition of β-xylosidase X-I by xylose; assay type: biochemical; conditions: β-xylosidase X-I of the invention; read-out: inhibition Ki (mM xylosc)
T1 construct: Mono Q peak I
Description: (§1) Table A summarises the specificity pattern of two β-xylosidases X-I and X-II of the invention--presumably differing only in their glycosylation pattern, not in their amino acid sequence--and of the β-xylosidase reported by Rodionova et al., and their inhibition by xylose.
(§2) DEAE-Sephadex A-50 was equilibrated in 50 mM sodium acetate buffer pH 5.0 and was added to the culture filtrate. After 30-60 minutes of stirring at 4° C., the DEAE-Sephadex together with the culture filtrate were passed through a funnel with a glass filter holder and the DEAE-Sephadex A-50 was transferred to a column. […] Fractions containing β-xylosidase activity, as was detected using the chromogenic substrate 4-methylumbelliferyl-β-D-xyloside (detects β-xylosidases and endo-xylanases) (Sigma #M7008), were pooled and desalted by dialysis against Millipore water and subsequently dialysed against 20 mM piperazine-HCl buffer pH 5.0. […] The specific activity of both β-xylosidase I and II towards the artificial substrate PNP-X was determined as described by Rodionova et al., 1983, to be respectively 60.2 and 60.9 U/mg protein. In addition the activity against PNP-β-D-glucopyranoside (Sigma #N7006) was determined to be 0.2 and 0.3 U/mg, against PNP-β-D-galactopyranoside (Sigma #N1252) 0.0 and 0.0 U/mg and against PNP-β-L-arabinofuranoside(Sigma #N3641) 2.8 and 3.4 U/mg respectively for β-xylosidase I and II.

[3] = molecular target: T2, Aspergillus niger β-xylosidase II (X-II, xylD), SEQ ID NO. 1 (Aspergillus niger, UniProt O00089); assay: Inhibition of β-xylosidase X-II by xylose; assay type: biochemical; conditions: β-xylosidase X-II of the invention; read-out: inhibition Ki (mM xylosc)
T2 construct: Mono Q peak II
Description: as §1, §2

T1 sequence (O00089 27-804): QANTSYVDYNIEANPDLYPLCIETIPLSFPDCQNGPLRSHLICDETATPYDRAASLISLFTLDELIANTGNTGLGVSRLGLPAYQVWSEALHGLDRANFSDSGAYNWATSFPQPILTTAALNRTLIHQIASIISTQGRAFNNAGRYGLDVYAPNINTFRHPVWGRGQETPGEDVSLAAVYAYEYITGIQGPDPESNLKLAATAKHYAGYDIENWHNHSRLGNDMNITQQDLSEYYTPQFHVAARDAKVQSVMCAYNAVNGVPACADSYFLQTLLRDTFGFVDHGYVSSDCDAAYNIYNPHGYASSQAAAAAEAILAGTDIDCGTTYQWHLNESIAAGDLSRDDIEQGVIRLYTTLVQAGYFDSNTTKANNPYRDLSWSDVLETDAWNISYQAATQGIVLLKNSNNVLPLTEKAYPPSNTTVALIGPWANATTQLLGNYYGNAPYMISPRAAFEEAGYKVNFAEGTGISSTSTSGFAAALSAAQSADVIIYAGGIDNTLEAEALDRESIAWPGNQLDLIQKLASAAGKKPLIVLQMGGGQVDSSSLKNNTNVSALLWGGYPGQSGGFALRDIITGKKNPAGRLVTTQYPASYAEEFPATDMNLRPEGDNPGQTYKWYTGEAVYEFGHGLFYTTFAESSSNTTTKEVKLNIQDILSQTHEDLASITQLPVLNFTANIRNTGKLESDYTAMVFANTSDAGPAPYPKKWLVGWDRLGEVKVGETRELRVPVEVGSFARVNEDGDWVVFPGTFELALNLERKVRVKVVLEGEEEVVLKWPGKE
T2 sequence (O00089 27-804): as above

xylose
Ki [1]: 2.9 mM
Ki [2]: 9.8 mM
Ki [3]: 13.2 mM
